In ChEMBL document CHEMBL1201862, “PubChem BioAssay data set” (2004):
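Each compound was tested at five concentrations against cells in 96-well plates for 48 hours. GI50 = concentration required for 50% inhibition of growth.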 Active and inactive are the calls of the source. Rule as the data show it: active = GI50 up to about 1.1 µM and inactive = higher.

Key:
Experiment in all cases: growth of human tumour cells (NCI), 48 h
SW-620 = tested on: SW-620
T47D = tested on: T47D
IGROV-1 = tested on: IGROV-1
SF-539 = tested on: SF-539
SF-268 = tested on: SF-268
HOP-92 = tested on: HOP-92
A549 = tested on: A549
SK-MEL-28 = tested on: SK-MEL-28
HT-29 = tested on: HT-29
KM12 = tested on: KM12
MDA-MB-231 = tested on: MDA-MB-231
CCRF-CEM = tested on: CCRF-CEM
NCI-H460 = tested on: NCI-H460
NCI-H226 = tested on: NCI-H226
HL-60 = tested on: HL-60
UACC-257 = tested on: UACC-257
SK-OV-3 = tested on: SK-OV-3
MCF7 = tested on: MCF7
OVCAR-4 = tested on: OVCAR-4
SR = tested on: SR

Compound	GI50 (SW-620)	GI50 (T47D)	GI50 (IGROV-1)	GI50 (SF-539)	GI50 (SF-268)	GI50 (HOP-92)	GI50 (A549)	GI50 (SK-MEL-28)	GI50 (HT-29)	GI50 (KM12)	GI50 (MDA-MB-231)	GI50 (CCRF-CEM)	GI50 (NCI-H460)	GI50 (NCI-H226)	GI50 (HL-60)	GI50 (UACC-257)	GI50 (SK-OV-3)	GI50 (MCF7)	GI50 (OVCAR-4)	GI50 (SR)
CCOC(=O)c1sc2c(c1OC(=O)c1cc(OC)c(OC)c(OC)c1)c(=O)n(-c1ccccc1)c(=S)n2-c1ccccc1	> 100 µM (inactive)	41.6 µM (inactive)	> 100 µM (inactive)	> 100 µM (inactive)	> 100 µM (inactive)	22.2 µM (inactive)	> 100 µM (inactive)	> 100 µM (inactive)	98.9 µM (inactive)	> 100 µM (inactive)	56.6 µM (inactive)	17.5 µM (inactive)	51.5 µM (inactive)	> 100 µM (inactive)	62.8 µM (inactive)	> 100 µM (inactive)	> 100 µM (inactive)	> 100 µM (inactive)	70.8 µM (inactive)	
CC(=O)c1sc(Nc2ccc(Cl)c(Cl)c2)nc1C	> 100 µM (inactive)	40 µM (inactive)	> 100 µM (inactive)	> 100 µM (inactive)	> 100 µM (inactive)		96.6 µM (inactive)	> 100 µM (inactive)	76.4 µM (inactive)	65.2 µM (inactive)	21 µM (inactive)		> 100 µM (inactive)	78 µM (inactive)		68.5 µM (inactive)	> 100 µM (inactive)	37.9 µM (inactive)	> 100 µM (inactive)	60.3 µM (inactive)
CCCCCCCCCCCCCCCC(=O)ON1C(=S)NC(C)(c2ccccc2)C1=S (configuration not stated)		> 100 µM (inactive)	79.3 µM (inactive)	> 100 µM (inactive)	73.6 µM (inactive)	> 100 µM (inactive)	> 100 µM (inactive)		55.2 µM (inactive)	> 100 µM (inactive)	> 100 µM (inactive)	36.4 µM (inactive)	> 100 µM (inactive)	87.9 µM (inactive)	94.6 µM (inactive)	> 100 µM (inactive)	> 100 µM (inactive)	> 100 µM (inactive)	> 100 µM (inactive)	
CO[C@]12CC(=O)C3(C(C[C@H]4CC5CC[C@H]6C[C@@H](OC(C)=O)CC[C@]6(OC(C)=O)C5C[C@@]43C)C1)C1C[C@H]3[C@@H]4CC[C@H]5C[C@@H](OC(C)=O)CC[C@]5(OC(C)=O)[C@H]4CC[C@]3(C)C12 (some centres not stated)	> 100 µM (inactive)	37 µM (inactive)	> 100 µM (inactive)	> 100 µM (inactive)	> 100 µM (inactive)	> 100 µM (inactive)	61.2 µM (inactive)	> 100 µM (inactive)	82.4 µM (inactive)	46.8 µM (inactive)	> 100 µM (inactive)	24.5 µM (inactive)	66.5 µM (inactive)			> 100 µM (inactive)	> 100 µM (inactive)	80.5 µM (inactive)	17.1 µM (inactive)	> 100 µM (inactive)
CCOc1ccc2c(c1)NC(=O)C(C1OC(c3ccccc3)=CC1=O)S2 (configuration not stated)	33.4 µM (inactive)	15.8 µM (inactive)	17 µM (inactive)	25.1 µM (inactive)	27.5 µM (inactive)		17.3 µM (inactive)	31 µM (inactive)	20.2 µM (inactive)	23.9 µM (inactive)	25.1 µM (inactive)	1.9 µM (inactive)	16.3 µM (inactive)	27.7 µM (inactive)	44.8 µM (inactive)	56.5 µM (inactive)	16.1 µM (inactive)	16.2 µM (inactive)		15.7 µM (inactive)
CC1=C(C(N)=O)C(c2ccncc2)C(C#N)C(=O)N1 (configuration not stated)	> 100 µM (inactive)	> 100 µM (inactive)	> 100 µM (inactive)	> 100 µM (inactive)	> 100 µM (inactive)	> 100 µM (inactive)		> 100 µM (inactive)		> 100 µM (inactive)	> 100 µM (inactive)	> 100 µM (inactive)	> 100 µM (inactive)		> 100 µM (inactive)	> 100 µM (inactive)	> 100 µM (inactive)	> 100 µM (inactive)	> 100 µM (inactive)	> 100 µM (inactive)
COc1ccccc1C(O)[C@@H]1C[C@@H]2[C@H]3CC[C@@](C)([C@@H]2O1)C3(C)C (some centres not stated)	16.1 µM (inactive)	16.4 µM (inactive)	15.9 µM (inactive)	6.53 µM (inactive)	22.9 µM (inactive)	15.8 µM (inactive)	21.2 µM (inactive)	17.1 µM (inactive)	19.4 µM (inactive)	20.8 µM (inactive)	17.3 µM (inactive)	20.8 µM (inactive)	19.5 µM (inactive)		20 µM (inactive)	20.3 µM (inactive)	27.4 µM (inactive)	19 µM (inactive)		20.6 µM (inactive)
C=CC(C)(O)CCC1C(=C)C(O)CC2C(C)(C)CCCC12C (configuration not stated)	20.7 µM (inactive)	23.5 µM (inactive)	24.3 µM (inactive)	17.9 µM (inactive)	19.9 µM (inactive)	17.3 µM (inactive)	22.1 µM (inactive)	18.7 µM (inactive)	17.8 µM (inactive)	21.1 µM (inactive)	17.7 µM (inactive)	18.5 µM (inactive)	16.9 µM (inactive)	15.6 µM (inactive)	14 µM (inactive)	19 µM (inactive)	33.3 µM (inactive)	23.2 µM (inactive)	20.5 µM (inactive)	
CN(C)CCNC1=CC(=O)c2c(O)ccc(O)c2C1=O	3.3 µM (inactive)	9.66 µM (inactive)	6.17 µM (inactive)	7.1 µM (inactive)	12.3 µM (inactive)	14.2 µM (inactive)	10.1 µM (inactive)	12.2 µM (inactive)	2.59 µM (inactive)	6.35 µM (inactive)	11.7 µM (inactive)	3.94 µM (inactive)	3.3 µM (inactive)	17.6 µM (inactive)	1.95 µM (inactive)	2.36 µM (inactive)	28.6 µM (inactive)	2.49 µM (inactive)	4.54 µM (inactive)	
O=C(CC(C(=O)c1ccsc1)c1cccs1)c1ccsc1 (configuration not stated)	> 100 µM (inactive)	21.4 µM (inactive)	> 100 µM (inactive)		85.9 µM (inactive)		46.6 µM (inactive)	76.2 µM (inactive)	63.1 µM (inactive)	31.5 µM (inactive)	92 µM (inactive)	15.2 µM (inactive)	53.8 µM (inactive)	> 100 µM (inactive)	31.8 µM (inactive)	51.4 µM (inactive)	54.6 µM (inactive)	39 µM (inactive)	73.5 µM (inactive)	27.4 µM (inactive)
CSC(=S)NN=C1CCCCC1	48.2 µM (inactive)	55.1 µM (inactive)	12.7 µM (inactive)	24.4 µM (inactive)	38.5 µM (inactive)	> 100 µM (inactive)	26.7 µM (inactive)	37.8 µM (inactive)	47.6 µM (inactive)	28.7 µM (inactive)	17.6 µM (inactive)	26.1 µM (inactive)	32.1 µM (inactive)	13.9 µM (inactive)		33.9 µM (inactive)	> 100 µM (inactive)	33.8 µM (inactive)	34.3 µM (inactive)	
CC1(C)N=[N+]([O-])C1(C)C	> 100 µM (inactive)	> 100 µM (inactive)	> 100 µM (inactive)	> 100 µM (inactive)	> 100 µM (inactive)		> 100 µM (inactive)	> 100 µM (inactive)	> 100 µM (inactive)	> 100 µM (inactive)	> 100 µM (inactive)	> 100 µM (inactive)	> 100 µM (inactive)	> 100 µM (inactive)	> 100 µM (inactive)	> 100 µM (inactive)	> 100 µM (inactive)	> 100 µM (inactive)	> 100 µM (inactive)	> 100 µM (inactive)
Cc1nc2c(Br)cc(Br)cc2c(=O)n1-c1ccccc1NC1OC(CO)C(O)C(O)C1O (configuration not stated)	> 100 µM (inactive)	> 100 µM (inactive)	> 100 µM (inactive)	> 100 µM (inactive)	> 100 µM (inactive)	> 100 µM (inactive)		> 100 µM (inactive)	> 100 µM (inactive)	> 100 µM (inactive)	> 100 µM (inactive)	> 100 µM (inactive)	> 100 µM (inactive)	> 100 µM (inactive)	> 100 µM (inactive)	> 100 µM (inactive)	> 100 µM (inactive)	> 100 µM (inactive)	> 100 µM (inactive)	
NCS(=O)(=O)O	> 100 µM (inactive)	> 100 µM (inactive)	> 100 µM (inactive)	0.0361 µM (active)	> 100 µM (inactive)	> 100 µM (inactive)	> 100 µM (inactive)	> 100 µM (inactive)	> 100 µM (inactive)	> 100 µM (inactive)	> 100 µM (inactive)	> 100 µM (inactive)	35.2 µM (inactive)	> 100 µM (inactive)	> 100 µM (inactive)	> 100 µM (inactive)	> 100 µM (inactive)	> 100 µM (inactive)	83.4 µM (inactive)	
CCOC(=O)C1=C(C)NC(=O)NC1c1ccc(N(CCCl)CCCl)cc1Cl (configuration not stated)	17.9 µM (inactive)	5.77 µM (inactive)	15.1 µM (inactive)	17.2 µM (inactive)	15.5 µM (inactive)	13 µM (inactive)	13.7 µM (inactive)	17.6 µM (inactive)	16 µM (inactive)	19.7 µM (inactive)	13.6 µM (inactive)		13 µM (inactive)	15.2 µM (inactive)	1.73 µM (inactive)	16 µM (inactive)	17.3 µM (inactive)	13.6 µM (inactive)	17.2 µM (inactive)	
